Results from a melting point compilation (Tetko et al.; mined from patent text by program, amines drawn as free bases though some values may be those of a salt).

Structure (SMILES) | melting point
CN1Cc2c(-c3nnc(CCl)o3)ncn2-c2cccc(Cl)c2C1=O | 201 to 203 °C
C/C(=C\c1ccc(O)cc1)c1ccc2c(c1)OCC(C)(C)CO2 | 70 to 71 °C
COC(=O)CCCC(=O)Nc1cccc(Br)n1 | 128 to 131 °C
CSC(=S)C1(c2ccc3ccccc3n2)CCCS1 (stereo unspecified) | 72 °C
O=C(OCc1ccccc1)N1CCc2c(sc3nc(CN4C(=O)CCC4=O)c(Cl)c(-c4ccc(OCC(F)(F)F)cc4)c23)C1 | 190 to 191 °C
O=C1c2ccccc2CCn2c(SC(F)(F)F)ccc21 | 95 to 95.5 °C
CC(Oc1ccc(Oc2ncc(Cl)cc2F)cc1)C(=O)O (stereo unspecified) | 95 to 97 °C
O=C(O)CCC1CCN(C(=O)OCc2ccc([N+](=O)[O-])cc2)CC1 | 98 to 99 °C
Cc1cc(SC2=C(O)CC(CCc3ccc(O)cc3)(C3CCCCC3)OC2=O)c(C(C)(C)C)cc1OS(=O)(=O)c1ccc(C#N)cc1 (stereo unspecified) | 112 °C
O=C(Nc1ccc(-n2nc(C3CC3)cc2C2CC2)cc1)c1ccccc1 | 133 to 138 °C
O=C(c1ccccc1F)C1CCN(CCc2c[nH]c3ccccc23)CC1 | 106 to 108 °C
NS(=O)(=O)c1ccc(-c2cc(-c3nc(-c4ccc(F)c(F)c4)cc(C(F)(F)F)n3)ccn2)s1 | 281 °C
N#CCc1ccc(F)cc1I | 52 to 53 °C
O=C1Cc2c3c(cc4ccccc24)N(c2ccccc2)C(=O)CN13 | 296 to 300 °C
c1cn2cc(-c3cnc4cc[nH]c4c3)cc(Nc3cc4n(n3)CCOC4)c2n1 | 192 to 195 °C
COc1ccc2c(c1)CC[C@H](CN1CCC3(CC1)C(=O)NCN3c1ccccc1)[C@@H]2O (relative stereo) | 182 to 183 °C
Cc1ccccc1CCC(=NO)C(=O)C(F)(F)F | 80 to 81 °C
CSc1nc(Cl)c(C(Cl)Cl)c(Cl)n1 | 66 °C
N#Cc1cc(Br)c(O)c(Cc2cc(F)cc(Cc3cc(C#N)cc(Br)c3O)c2O)c1 | 240 °C
CC(C)(C=O)C(=O)Nc1ccc(Cl)cc1 | 99 to 100 °C
O=C(NCCO)c1cccc(-c2ccc3c(c2)N(Cc2cccc(Cl)c2Cl)CC3)c1 | 158 to 159 °C
OCC1CC(O)C(n2cnc3c(-n4cccc4)ncnc32)O1 (stereo unspecified) | 175 to 176 °C

Structure (SMILES) | melting point
ClCc1nc2ccccc2c2ccnn12 | 135 to 136 °C
C[C@@H]1CN(c2ccc(-c3[nH]nc4c3C(=O)c3c(NC(=O)NN5CCOCC5)cccc3-4)cc2)C[C@H](C)N1 | 237 °C
Nc1ccc(CN2CCC(=O)C(=C3SC=CS3)C2=O)cc1 | 156 to 158 °C
CNC(=O)NC1CCC(OC)c2sccc21 (stereo unspecified) | 152 to 159 °C
O=C(CCc1ccc(S(=O)(=O)N(C(=O)c2c3ccccc3nc3ccccc23)c2ccc3c(c2)OCCO3)cc1)ON1C(=O)CCC1=O | 140 °C
CCON=C(C)C1CCC(=O)CC1=O (stereo unspecified) | 105 to 112 °C
c1cncc(CC2(Cc3cccnc3)c3ccccc3-c3ccccc32)c1 | 137 to 138 °C
O=C(NCc1ccc(F)cc1)c1cn2nc(N3CCN(C(=O)c4ccccc4C(F)(F)F)CC3)ccc2n1 | 205 to 207 °C
O=C(Nc1ccc(-n2nc(C(F)(F)F)cc2C(F)(F)F)cc1F)c1ccc(F)cc1F | 66 to 67 °C
O=C1Nc2cccc(-c3cccs3)c2/C1=C/c1ccc[nH]1 | 213 to 214 °C
Clc1ccc(-c2cc(C3CCN(CC4CC4)CC3)n[nH]2)cc1 | 176 to 178 °C
Cc1cn(C2CC(N=[N+]=[N-])C(CO)O2)c(=O)nc1N (stereo unspecified) | 85 to 88 °C
Cc1nc(N)c(C(N)=S)s1 | 209 to 213 °C
N#Cc1cc(NC(=O)c2ccn(-c3ccc(F)cc3)c2)ccc1N1CCCCC1 | 195 to 196 °C
CC(=O)C(=NNc1ccccc1)C(=O)N(C(C)C)C(C)C | 143 to 145 °C
Nc1c(F)cc(Cl)cc1C(O)(C#CC1CC1)C(F)(F)F (stereo unspecified) | 131 to 135 °C
COc1ccc2c(c1)C(=O)OCN2c1ccccc1 | 99.5 to 101 °C
c1ccc2c(Cn3cncn3)noc2c1 | 102 to 104 °C
OCc1cc(F)c(Cl)nc1Cl | 65 to 67 °C
CC12CC(N3CCC4(CC3)OCCO4)C(O)CC1CCC1C2CCC2(C)C(O)C(N3CCCCC3)CC12 (stereo unspecified) | 216 to 218 °C
O=c1c2ccccc2ncn1C1CCN(Cc2ccccc2)CC1 | 147 °C
N#Cc1ccccc1C(Cc1ccc(C(F)(F)F)cc1)Cn1cncn1 (stereo unspecified) | 123 °C

Results, then the molecule that gave them:

melting point | Structure (SMILES)
125 to 130 °C | CCOC(=O)c1cc2c(cn1)[nH]c1ccc(C(C)O)cc12 (stereo unspecified)
74 to 75 °C | COC(=O)CSc1cc(C)ccc1[N+](=O)[O-]
212 to 216 °C | CCOC(=O)c1cn(C2CC2)c2c(CO)c(N3CCOCC3)c(F)cc2c1=O
214 to 216 °C | CC(C)Cn1cnc2c(N)nc3ccc(CCO)cc3c21
175 to 176 °C | COc1ccc(-c2cc(C)c(C(=O)O)c(C)c2)cc1OC
178 to 179 °C | CCN1CCN(c2nc(-c3ccccc3)nc3sc(C#N)c(C)c23)CC1
238 to 239 °C | O=C(O)/C=C1\CCc2c(F)cc(F)cc21
120 to 124 °C | Cc1c(SCCN2CCOCC2)ccnc1CSc1nc2cc(C(=O)O)ccc2[nH]1
168 to 170 °C | CC(O)c1cccc(-c2ccc3nc(-c4ccc(Cl)cc4)cn3c2)c1 (stereo unspecified)
101 °C | COc1ccc2c(c1)C(C(=O)O)CC2 (stereo unspecified)
156 to 159 °C | CCCS(=O)(=O)Oc1c(C(=O)c2ccc3c(c2C)C(N(C)C(=O)OC)CCS3(=O)=O)cnn1CC (stereo unspecified)
197 °C | C=CCN1C(C)(C)CC(OC(=O)CCC(C)(c2ccc(O)c(C(C)(C)C)c2)c2ccc(O)c(C(C)(C)C)c2)CC1(C)C
144 to 146 °C | CCOC(=O)N1CCc2nc(-c3ccncn3)cc(=O)n2CC1
108 to 109 °C | C=C1CC(COc2cccc3ccc(C)nc23)(c2ccccc2)OC1=O (stereo unspecified)
167 to 168 °C | CCc1cnc2c(NC(=O)c3c(Cl)cccc3Cl)cccc2c1CC(=O)OC
226 °C | COc1ccc(C(=O)Nc2cccnc2)c2c1oc1ccccc12
158 to 159 °C | COc1cc(Nc2nccc(-c3ccc(NC(=O)OC(C)(C)C)cc3)n2)cc(OC)c1OC
253 to 254 °C | Nc1c(-c2ccc(-c3ccc(F)cc3F)cc2)nc2ccc(Cl)cc2c1C(=O)O
155 to 158 °C | NC(=O)C(O)c1c(Cl)cccc1Cl (stereo unspecified)

melting point | Structure (SMILES)
259 °C | CCCn1c(=O)c2[nH]c(/C=C/c3ccccc3F)nc2n(CCC)c1=O
106 to 108 °C | CCS(=O)(=O)Nc1ccc(F)c(N)c1
223 to 226 °C | CCn1nc(C(F)(F)F)cc1NC(=O)C1C(C)=CC=CC1(C(N)=O)C(C)C (stereo unspecified)
207 to 209 °C | CNS(=O)(=O)c1ccc(C)c(CCCOCCn2cnc3c(N)nc4ccccc4c32)c1
81 °C | CCC(CCc1cc(-c2ccccc2)nc2ccccc12)C(=O)N(CC)CC (stereo unspecified)
262 to 264 °C | CNS(=O)(=O)c1cn(C)c2ccc(OC)cc2c1=O
94 °C | CCCCCCS(=O)(=O)c1ccc(Oc2ccc(Br)cc2)nc1
223 to 224 °C | CC1=C(CC2=NCCN2)CCc2ccccc21
84.8 to 85.1 °C | COc1cc(C)c2c(Oc3cccc(C(F)(F)F)c3)c(OC)cc(NC(C)CCC[N+](=O)[O-])c2n1 (stereo unspecified)
174 to 180 °C | CC(C)c1ccc(-n2c(CC(=O)O)c(C(=O)O)c3cc(Oc4ccc(Cl)c(Cl)c4)ccc32)cc1
132 to 133 °C | CCOC(=O)c1cc2c(C)cccc2n1CCCC(=O)O
168 to 173 °C | CN(Cc1ccccc1)c1ccc(C(=O)O)nc1
170 to 172 °C | COc1cc(/C=C/C(=O)CC(=O)c2ccc(O)c(OC)c2)ccc1O
168 to 169 °C | COC(C)(C)c1ccc(-c2cc(-c3c[nH]nc3-c3cccc(C)n3)ccc2F)nc1
112 to 115 °C | C=CC(=O)Oc1ccc(CNS(C)(=O)=O)cc1
70 to 73 °C | CCCCCCC(=O)N[C@@H](C(=O)OCc1ccccc1)[C@@H](C)O
63 to 64.5 °C | COC(=O)CCc1cc(C(C)(C)C)c(O)c(C(C)(C)C)c1
80 to 82 °C | CC(C)(CO)NC(=O)c1ccccc1
216 to 218 °C | O=C1NC(=O)C(c2ccc(N=Cc3ccc(Cl)c(Cl)c3)cc2)S1 (stereo unspecified)

melting point | Structure (SMILES)
170 to 174 °C | O=C1NC(=O)C(Cc2ccc(C(=O)COc3ccccc3)cc2)S1 (stereo unspecified)
233 to 235 °C | CC1(C(=O)c2c[nH]c3ncc(-c4ccc(N5CCOCC5)cc4)nc23)CCCCC1
210 to 211 °C | Oc1cccc(/C=C/c2nc3ccccc3s2)c1
120 to 122 °C | O=C(O)c1cc(OCc2ccccc2)ccc1OC1CCOC1=O (stereo unspecified)
174 °C | O=C(O)c1cc(S(=O)(=O)Nc2ccc(Cl)cc2Cl)ccc1Cl
199 to 206 °C | CCn1c(=O)c(Oc2ccc(F)cc2F)cc2cnc(NC3CCOCC3)nc21
75 °C | CC(C)(OCc1cc2cc(C(F)(F)F)ccc2n1S(=O)(=O)c1ccc2c(c1)OCCO2)C(=O)O
100 to 102 °C | COC(=O)C(=O)c1ccc(OC/C=C/c2ccc3ccccc3c2)cc1
232 °C | CC(C)(C)Cn1c(=O)c(C#N)c(N2CCN(C(=O)c3cccs3)CC2)c2cccnc21
91 to 94 °C | CC(C)(O)Cc1cccc(O)c1
81 to 82 °C | Cc1cc(SCC#Cc2cccc(C(F)(F)F)c2)ccc1OCC(=O)O
211 to 212 °C | CCc1c(C(=O)O)c(CC(=O)O)n(C)c1C(=O)c1ccc(Cl)cc1
219 to 221 °C | CC(=O)c1ccc2c(c1)CCc1ccc(C(=O)O)cc1S2(=O)=O
256 to 258 °C | Cc1cc(-c2nnc3c4ccccc4c(OCc4ncnn4C)nn23)no1
148 to 150 °C | COc1ccc(-c2cc(=Nc3c(C)cc(C)cc3C)n(C)c(=O)n2CC(=O)O)cc1OC
132 to 134 °C | CN(c1cc(OCC(=O)O)cc2cc(C3=NCC(CN4CCSCC4)S3)[nH]c12)S(=O)(=O)c1ccccn1 (stereo unspecified)
70 to 73 °C | CC(C)c1cccc(C(C)C)c1NC(=O)C1CCCC(Cc2ccccn2)(Cc2ccccn2)C1=O (stereo unspecified)
155 to 156 °C | COC(=O)c1cc2cc(OCc3ccccc3)ccc2n1CC(=O)N(C)CCc1ccccc1
111 to 115 °C | C[Si](C)(C)NC(=O)c1ccccc1
